Assay results taken from US10231453B2, “5-substituted imidazole derivatives” (BAYER CROPSCIENCE AKTIENGESELLSCHAFT, priority 2015, dated 2019).
Read-outs that look alike come from different tables or passages of the source.

Legend:
[1] = test system: Botrytis cinerea; assay: In vivo preventive test on Botrytis cinerea (grey mould) on gherkin, Examples B, Q1 and R2; details: for pest or weed control at 500 ppm / pest or weed control at 100 ppm: Botrytis cinerea
[2] = Measurement of LogP values by HPLC on reversed phase columns (EEC directive 79/831 Annex V.A8); assay type: physicochemical; details: method [a]: LC-UV, acidic range, 0.1% formic acid in water and acetonitrile as eluent; Table 1
Description: Measurement of Log P values was performed as outlined above.

[3] = test system: Uromyces appendiculatus; assay: In vivo preventive test on Uromyces appendiculatus (bean rust), Examples G and R7; details: 264 h, 500 ppm of active ingredient, bean, preventive spray, evaluated 11 days after inoculation, read-out: efficacy
[4] = test system: Puccinia recondita; assay: In vivo preventive test on Puccinia recondita (brown rust on wheat), Examples C and R3; details: Puccinia recondita, 264 h; 500 ppm of active ingredient; wheat, preventive spray, evaluated 11 days after inoculation; read-out: efficacy
[5] = test system: Sphaerotheca fuliginea; assay: In vivo preventive test on Sphaerotheca fuliginea (powdery mildew on cucurbits), Examples F and R6; details: Podosphaera fuliginea, 360 h; 500 ppm of active ingredient; gherkin, preventive spray, evaluated 15 days after inoculation; read-out: efficacy
[6] = test system: Septoria tritici; assay: In vivo preventive test on Septoria tritici (leaf spot on wheat), Examples E, Q3 and R5; details: Zymoseptoria tritici, 576 h, 500 ppm of active ingredient; wheat, preventive spray, evaluated 24 days after inoculation; read-out: efficacy
[7] = test system: Pyrenophora teres; assay: In vivo preventive test on Pyrenophora teres (net blotch on barley), Examples D, Q2 and R4; details: Pyrenophora teres, 336 h, 500 ppm of active ingredient, preventive spray, evaluated 14 days after inoculation, read-out: efficacy
[8] = Example R2, rate of application 100 ppm
[9] = Example R2, rate of application 500 ppm
[10] = 500 ppm of active ingredient, preventive spray, evaluated 4 to 5 days after inoculation, read-out: efficacy
[11] = Example R2, rate of application 100 ppm, read-out: Efficacy in %
[12] = Example R2, rate of application 500 ppm, read-out: Efficacy in %

SMILES	Efficacy in % [1, 8] [%]	Efficacy in % [1, 9] [%]	chromatographic logP [2]	pest or weed control at 500 ppm [3] [%]	pest or weed control at 500 ppm [4] [%]	pest or weed control at 500 ppm [5] [%]	pest or weed control at 500 ppm [6] [%]	pest or weed control at 500 ppm [7] [%]	pest or weed control at 500 ppm [1, 10] [%]	pest or weed control at 100 ppm [1, 11] [%]	pest or weed control at 500 ppm [1, 12] [%]
OC(Cc1ccc(Cl)cc1F)(Cn1cnc(Br)c1)C1(Cl)CC1 (racemic) [drawing 79, reference compound]	0	19	–	–	–	–	–	–	–	–	–
N#Cc1cn(CC(O)(Cc2ccc(Cl)cc2F)C2(Cl)CC2)cn1 (racemic) [drawing 81, reference compound]	0	0	–	–	–	–	–	–	–	–	–
OC(Cc1ccc(Cl)cc1F)(Cn1cnc(Cl)c1)C1(Cl)CC1 (racemic) [drawing 83, reference compound]	0	0	–	–	–	–	–	–	–	–	–
OC(Cc1cccnc1Cl)(Cn1cncc1Cl)C1(Cl)CC1 (stereo not shown) [Example I-07]	–	–	1.57	90 to 100	80 to 89	90 to 100	90 to 100	70 to 79	–	–	–
O=Cc1cncn1CC(O)(Cc1ccccc1Cl)C1(Cl)CC1 (stereo not shown) [Example I-12]	–	–	–	90 to 100	80 to 89	90 to 100	90 to 100	90 to 100	–	–	–
OC(Cc1ccccc1Cl)(Cn1cncc1I)C1(Cl)CC1 (stereo not shown) [Example I-14]	–	–	2.14	90 to 100	80 to 89	90 to 100	90 to 100	80 to 89	90 to 100	–	–
N#CCc1cncn1CC(O)(Cc1ccccc1Cl)C1(Cl)CC1 (stereo not shown) [Example I-21]	–	–	1.66	70 to 79	80 to 89	90 to 100	70 to 79	–	90 to 100	–	–
N#Cc1cncn1CC(O)(Cc1cccc(Br)c1)C1(Cl)CC1 (stereo not shown) [Example I-45]	–	–	–	90 to 100	90 to 100	90 to 100	90 to 100	80 to 89	80 to 89	–	–
N#Cc1cncn1CC(O)(Cc1ccnc(Br)c1Br)C1(Cl)CC1 (stereo not shown) [Example I-48]	–	–	–	90 to 100	80 to 89	90 to 100	90 to 100	70 to 79	–	–	–
Cc1ccc(CC(O)(Cn2cncc2C#N)C2(Cl)CC2)c(C)c1 (stereo not shown) [Example I-51]	–	–	–	80 to 89	90 to 100	90 to 100	90 to 100	90 to 100	–	–	–
N#Cc1cncn1CC(O)(Cc1cc(Cl)ncc1Cl)C1(Cl)CC1 (stereo not shown) [Example I-56]	–	–	2.62	90 to 100	80 to 89	90 to 100	90 to 100	70 to 79	–	–	–
Cc1cccc(CC(O)(Cn2cncc2C#N)C2(Cl)CC2)c1 (stereo not shown) [Example I-59]	–	–	–	90 to 100	80 to 89	90 to 100	90 to 100	–	90 to 100	–	–
Cc1ccccc1CC(O)(Cn1cncc1Cl)C1(Cl)CC1 (stereo not shown) [Example I-71]	–	–	2.33	90 to 100	90 to 100	90 to 100	90 to 100	90 to 100	90 to 100	–	–
Cc1cccc(CC(O)(Cn2cncc2Cl)C2(Cl)CC2)c1 (stereo not shown) [Example I-73]	–	–	–	–	80 to 89	90 to 100	80 to 89	80 to 89	90 to 100	–	–
Cc1ccc(CC(O)(Cn2cncc2Cl)C2(Cl)CC2)cc1 (stereo not shown) [Example I-76]	–	–	–	–	90 to 100	90 to 100	90 to 100	90 to 100	90 to 100	–	–
OC(Cc1ccc(Cl)cc1)(Cn1cncc1Cl)C1(Cl)CC1 (stereo not shown) [Example I-77]	–	–	–	90 to 100	80 to 89	90 to 100	90 to 100	80 to 89	90 to 100	–	–
CC1(C(O)(Cc2ccccc2Cl)Cn2cncc2C#N)CC1 (stereo not shown) [Example I-79]	–	–	2.87	90 to 100	90 to 100	90 to 100	90 to 100	90 to 100	90 to 100	–	–
N#Cc1cncn1CC(O)(Cc1cccc(Cl)c1Cl)C1CCC1 (stereo not shown) [Example I-85]	–	–	3.31	90 to 100	90 to 100	90 to 100	90 to 100	80 to 89	–	–	–

SMILES	Efficacy in % [1, 8] [%]	Efficacy in % [1, 9] [%]	chromatographic logP [2]	pest or weed control at 500 ppm [3] [%]	pest or weed control at 500 ppm [4] [%]	pest or weed control at 500 ppm [5] [%]	pest or weed control at 500 ppm [6] [%]	pest or weed control at 500 ppm [7] [%]	pest or weed control at 500 ppm [1, 10] [%]	pest or weed control at 100 ppm [1, 11] [%]	pest or weed control at 500 ppm [1, 12] [%]
OC(Cc1ccccc1C(F)(F)F)(Cn1cncc1Cl)C1(Cl)CC1 (stereo not shown) [Example I-89]	–	–	2.62	90 to 100	80 to 89	90 to 100	–	80 to 89	–	–	–
Cc1ccc(CC(O)(Cn2cncc2Cl)C2(Cl)CC2)c(F)c1 (stereo not shown) [Example I-108]	–	–	2.34	–	90 to 100	90 to 100	90 to 100	90 to 100	90 to 100	–	–
N#Cc1cncn1CC(O)(Cc1ccc(Cl)cc1F)CC1CC1 (stereo not shown) [Example I-120]	–	–	–	90 to 100	90 to 100	90 to 100	70 to 79	70 to 79	–	–	–
COC(Cc1ccc(Cl)cc1F)(Cn1cncc1C#N)C1CC1 (stereo not shown) [Example I-121]	–	–	3.31	90 to 100	80 to 89	90 to 100	90 to 100	70 to 79	–	–	–
CC(C)C(O)(Cc1ccc(F)cc1F)Cn1cncc1C#N (stereo not shown) [Example I-128]	–	–	2.52	90 to 100	90 to 100	90 to 100	90 to 100	–	90 to 100	–	–
N#Cc1cncn1CC(O)(Cc1ccccc1F)C1CCC1 (stereo not shown) [Example I-137]	–	–	2.46	90 to 100	80 to 89	90 to 100	90 to 100	–	70 to 79	–	–
Cc1cccc(CC(O)(Cn2cncc2Cl)C2(Cl)CC2)c1F (stereo not shown) [Example I-143]	–	–	2.35	–	90 to 100	90 to 100	90 to 100	70 to 79	–	–	–
N#Cc1cncn1CC(O)(Cc1cccc(F)c1F)C1CCC1 (stereo not shown) [Example I-148]	–	–	2.57	90 to 100	90 to 100	–	90 to 100	80 to 89	–	–	–
CC(C)C(O)(Cc1cccc(F)c1F)Cn1cncc1C#N (stereo not shown) [Example I-149]	–	–	2.47	90 to 100	90 to 100	90 to 100	80 to 89	–	70 to 79	–	–
N#Cc1cncn1CC(O)(Cc1cccc(F)c1F)CC1CC1 (stereo not shown) [Example I-151]	–	–	2.66	90 to 100	80 to 89	90 to 100	90 to 100	70 to 79	–	–	–
N#Cc1cncn1CC(O)(Cc1ccccc1I)C1(Cl)CC1 (stereo not shown) [Example I-166]	–	–	3.13	90 to 100	90 to 100	90 to 100	70 to 79	80 to 89	–	–	–
OC(Cc1ccccc1I)(Cn1cncc1Cl)C1(Cl)CC1 (stereo not shown) [Example I-167]	–	–	–	90 to 100	80 to 89	90 to 100	–	80 to 89	90 to 100	–	–
OC(Cc1ccccc1Cl)(Cn1cnc(Br)c1)C1(Cl)CC1 (stereo not shown) [drawing 70, reference compound]	–	–	–	–	–	–	–	–	–	5	0
N#Cc1cn(CC(O)(Cc2ccccc2Cl)C2(Cl)CC2)cn1 (stereo not shown) [drawing 72, reference compound]	–	–	–	–	–	–	–	–	–	0	0
C#Cc1cn(CC(O)(Cc2ccccc2F)C2(Cl)CC2)cn1 (stereo not shown) [drawing 74, reference compound]	–	–	–	–	–	–	–	–	–	0	0
OC(Cc1ccccc1F)(Cn1cnc(Cl)c1)C1(Cl)CC1 (stereo not shown) [drawing 76, reference compound]	–	–	–	–	–	–	–	–	–	0	0
OC(Cc1ccccc1F)(Cn1ccnc1Cl)C1(Cl)CC1 (stereo not shown) [drawing 77, reference compound]	–	–	–	–	–	–	–	–	–	0	0
N#Cc1cn(CC(O)(Cc2ccccc2F)C2(Cl)CC2)cn1 (stereo not shown) [drawing 85, reference compound]	–	–	–	–	–	–	–	–	–	0	0
